Test results taken from PMC5754411 (Cancer Chemotherapy and Pharmacology, 2017).
Where two headings read alike, the source gives them in different places.

Assays:
[1] = set-up: method as in PMID 28303528; conditions: humans, cited from earlier work
clinical = conditions: plasma
Description: Signed and dated written informed consent was obtained from each patient before participation in the study and before the performance of any procedures. After informed consent was obtained, eligible participants were given the choice to be admitted to the clinical research unit on day − 1 or on day 1. A summary of the study design can be found in Fig. 1. […] Subjects continued fasting until 2 h after the start of the IV infusion, at which time a non-standardised light meal was served. The radiolabelled dose contained approximately 100 nCi (3.7 kBq) radioactivity and was administered into one arm of the subject; the contralateral arm was used for pharmacokinetic sampling and clinical laboratory blood draws. The syringe for IV drug administration was connected to a Perfusor Space Infusion Pump (B. Braun), which was set to administer 7 mL in 15 min. Blood samples were taken pre-dose and at 1, 1.5, 2 (just before start of IV infusion), 2.125 (halfway through the IV infusion), 2.25 (just before end of infusion), 2.33, 2.66, 3, 4, 6, and 12 h. Sampling was done on each morning of days 2, 3, 4, 5, 7, 9, 11, 13, 15, and 22. Plasma was divided in two sets: one set was sent to Xceleron Inc. (Germantown, MD, USA) for the determination of plasma concentrations of the ^14C-microtracer by AMS, and the other set was stored at the Antoni van Leeuwenhoek Hospital until it received pharmacokinetic analysis at the Good Laboratory Practice–licensed laboratory of the pharmacy. Plasma was separated from blood by centrifugation (3,000 rpm, 15 min, 4 °C) and was stored frozen at ≤ − 70 °C in polypropylene tubes before and after analysis. […] Vital signs assessments, haematology assessment, and blood chemistry assessments were done frequently to make sure that the patients were still in sufficient condition to remain on treatment. […] The study was approved by the local independent ethics committee and was conducted in accordance with local regulations, the Declaration of Helsinki, and International Conference on Harmonisation Good Clinical Practice Guidelines.
In brief, separation was carried out using an HPLC Acquity I Class pump (Waters, Milford, MA, USA) supplied with a SunFire C18 column (50 mm × 2.1 mm, 5 µm, Waters). Gradient elution was applied using 20 mM ammonium acetate in water (mobile phase A) and 0.1% formic acid in acetonitrile-methanol (50:50, v/v; mobile phase B). Each batch of experimental samples was run against freshly prepared calibration standards. Replicate quality control samples at three concentrations were stored and analysed alongside study samples. The analytical range was from 1 to 500 ng/mL.
Total ^14C-radioactivity concentrations in plasma samples were determined using AMS. Plasma samples were directly aliquoted into tubes containing copper oxide powder (CuO). The samples were graphitised and analysed by a Single Stage Accelerator Mass Spectrometer (SSAMS) 250 kV system (National Electrostatics Corp., Middleton, WI, USA). […] Samples were analysed by an Agilent 1200 HPLC system (Agilent Technologies, Palo Alto, CA, USA) equipped with a wavelength UV detector set to 254 nm. Separation was achieved using a Phenomenex Kinetex 2.6 µ biphenyl column (100 Å, 100 × 3.0 mm). Mobile phase A and B consisted of 20 mM ammonium acetate in water and 0.1% formic acid in acetonitrile–methanol (50:50, v/v), respectively. Column oven temperature was set at 40 °C, and run-time was 18 min. […] The fractions were graphitised and analysed by SSAMS. Each batch of experimental samples was run against freshly prepared calibration standards at seven concentrations in duplicates. Replicate quality control samples at three concentrations were stored and also analysed alongside study samples. Finally, F po was calculated as the ratio of the dose-normalised AUC of the oral dose to the IV dose.

[2] = Sprague–Dawley rats; ref data not published; cited from earlier work
[3] = beagle dogs; ref data not published; cited from earlier work
[4] = cited from earlier work

Row | SMILES | Presence of metabolite in circulation [1] | bioavailability (clinical; human, oral, 300 mg) [%] | AUC(0-inf) (clinical; human, po, 300 mg) [ng·h/mL] | AUC(0-t) (clinical; human, po, 300 mg) [ng·h/mL] | Cmax (clinical; human, po, 300 mg) [ng/mL] | t max (clinical; human, po, 300 mg, t max, oral 300 mg niraparib, n = 6, median and range) [h] | half-life (clinical; human, po, 300 mg, t ½, oral 300 mg niraparib, n = 6, sampling 22 days) [h] | t max (clinical; oral 300 mg niraparib, n = 6, median and range) | Dose recovered as the parent compound in faeces ([1]; oral radiolabelled niraparib) | Total orally administered dose recovered in excreta ([1]; urine and faeces, radiolabelled niraparib) | F po [2] [%] | F po [3] [%] | t max ([4]; previous phase I dose-escalation study, range 1.5–4.1 h) | t ½ ([4]; previous study, shorter sampling period) [h]
1 | O=C(O)c1cccc2cn(-c3ccc(C4CCCNC4)cc3)nc12 (centres unmarked) [M1] | substantially present in circulation |  |  |  |  |  |  |  |  |  |  |  |  | 
2 | NC(=O)c1cccc2cn(-c3ccc([C@@H]4CCCNC4)cc3)nc12 [niraparib] |  | 72.7 | 47400 | 46900 | 1270 | 4 | ~95.6 | 4.01 (3.07–6.03) h | approximately 20% | approximately 90% | 27 | 57 | around 3.1 h | 36.2
